The values below come from paper PMC9257522, “Machine Learning for Discovery of New ADORA Modulators” (Frontiers in Pharmacology, 2022).

One assay has as its system T1, A2BAR.
T1 construct: expressed in transfected cells; host or cells: HEK293
To be noted: background property of the receptor, no reference given, cited from earlier work.

For the next assay, the system named is A3AR. To be noted: background property of the receptor, no reference given; listed as ADO; cited from earlier work.
For assay [1], the system named is T2, human A1AR.
T2 construct: host or cells: HEK293 A1AR Nomad cell line
As to the kind of experiment: A1AR cAMP assay, HEK293 A1AR Nomad cell line (Innoprot), agonist mode. To be noted: compounds at 10 µM, normalized to 10 µM NECA (100%) and vehicle DMSO (0%). Format: cell-based. The source says: For screening of the initial compounds predicted by machine learning models to activate A1AR receptor, we used the HEK293 A1AR Nomad cell line, which consists of HEK293 cells stably expressing human A1AR with no tag. This cell line has been designed to assay compounds or analyze their capability to modulate the A1AR. When the agonist binds to A1AR in this engineered cell line a Go protein is activated, which in turn, triggers a cellular response mediated by cAMP inhibition. This cellular response can be measured by quantifying the increase in fluorescence intensity and its cellular distribution. An agonist assay was performed for 29 compounds (predicted to be active by the machine learning model) in the human recombinant HEK293 A1AR Nomad cell line using a fluorescence-based assay. An agonist effect of the compounds was measured by quantifying the changes in the fluorescence emission cAMP Nomad biosensor, this elevation of fluorescence was analyzed using a plate reader Synergy 2 (Biotek, Winooski, VT). The error bars represent the standard deviation among the three replicate wells. The 29 compounds were tested at 10 μM using nonselective AR agonist adenosine-5′-N-ethyluronamide (NECA) at 10 μM as a reference.
(In general: Cyclic AMP is a second messenger, typically raised through Gs and lowered through Gi signalling.)

For assay [2], the system named is T2, human A1AR. As to the kind of experiment: Radioligand displacement binding, [3H]DPCPX, HEK293 membranes. To be noted: mean ± standard error, three independent experiments. How it is done:
(§1) HEK293 cells stably expressing the human A1AR, A2AAR, A3AR were cultured in DMEM supplemented with 10% fetal bovine serum, 100 Units/ml penicillin, 100 µg/ml streptomycin, and 2 µmol/ml glutamine. To prepare cell membranes, cells were detached from culture plates by scraping into cold PBS and centrifuged at 250 g for 5 min. The pellets were resuspended in ice-cold PBS buffer (pH 7.4) and then homogenized. After homogenization and suspension, cells were centrifuged at 1,000 g for 10 min, and the pellet was discarded. The suspension was then re-centrifuged at 20,000 g for 60 min at 4°C. […] The aliquots of membrane preparations were stored at −80°C until the binding experiments. For displacement binding assays, membrane preparations (20 µg proteins/tube) were incubated at 25°C for 60 min with a final concentration of [^3H]DPCPX (0.5 nM), [^3H]ZM241385 (1.0 nM), […] [^125I]I-AB-MECA (0.1 nM) for A1AR, A2AAR, A3AR, respectively, in a mixture containing 50 µl of increasing concentrations of a test ligand in a total assay volume of 200 µl of 50 mM Tris HCl, pH 7.4, containing 10 mM MgCl2. Nonspecific binding was determined using 100 µM of XAC. The reaction was terminated by filtration with GF/B filters using a Brandel (Gaithersburg, MD) 24-channel harvester. Filters were placed in scintillation vials containing 5 ml of Hydrofluor scintillation buffer (National Diagnostics, Atlanta, GA) and counted using a Tricarb 2810TR liquid scintillation counter (PerkinElmer, Waltham, MA).
In general terms: In a radioligand displacement assay an active substance lowers the binding of a labelled ligand.

For assay [3], the target named is T3, human A2AAR (Homo sapiens, UniProt P29274).
T3 construct: expressed in transfected cells; host or cells: HEK293
As to the kind of experiment: Radioligand displacement binding, [3H]ZM241385, HEK293 membranes. To be noted: mean ± standard error, three independent experiments; for Ki: read-out: Ki, A2A ([3H]ZM241385). Here is the method:
as §1

For a further assay, the system named is human A2BAR. As to the kind of experiment: Radioligand displacement binding, [3H]DPCPX.
In assay [4] the target is T4, human A3AR (Homo sapiens, UniProt P0DMS8).
T4 sequence (P0DMS8 1-318): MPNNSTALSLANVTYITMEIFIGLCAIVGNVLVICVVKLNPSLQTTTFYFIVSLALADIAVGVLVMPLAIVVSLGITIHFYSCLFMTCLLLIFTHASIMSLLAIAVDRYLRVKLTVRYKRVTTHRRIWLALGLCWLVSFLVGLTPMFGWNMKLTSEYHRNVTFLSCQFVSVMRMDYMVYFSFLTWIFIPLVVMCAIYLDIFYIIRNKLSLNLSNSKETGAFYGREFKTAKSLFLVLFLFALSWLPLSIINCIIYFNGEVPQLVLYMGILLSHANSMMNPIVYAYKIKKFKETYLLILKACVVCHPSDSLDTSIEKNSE
As to the kind of experiment: Radioligand displacement binding, [125I]I-AB-MECA, HEK293 membranes. The note with it: for Ki, A3 ([125I]I-AB-MECA) / Ki: mean ± standard error, three independent experiments; for Ki: read-out: Ki, A3 ([125I]I-AB-MECA). Here is the method: as §1

Assay [5] relates to T5, A1AR.
T5 construct: expressed in transfected cells; host or cells: HEK293
The experiment in a line: cAMP assay in AR-expressing HEK293 cells (ALPHAScreen), A1AR. The note with it: A1AR-expressing HEK cells; cAMP inhibition, Cl-ENBA reference full agonist. It counts as cell-based, human. How it is done:
(§2) HEK293 cells were grown in 96-well plates in DMEM supplemented with 10% fetal bovine serum, 100 Units/ml penicillin, 100 µg/ml streptomycin, and 2 µmol/ml glutamine. […] For A1AR and A3AR, after incubation with agonists for 20 min, forskolin (10 µM) was added and the mixture incubated for an additional 15 min. The reaction was terminated upon removal of the supernatant and addition of 100 µl Tween-20 (0.3%). Intracellular cAMP levels were measured with an ALPHAScreen cAMP assay kit as instructed by the manufacturer (PerkinElmer).

In assay [6] the target is T3, human A2AAR. The experiment in a line: cAMP assay in AR-expressing HEK293 cells (ALPHAScreen), A2AAR. Format: cell-based. How it is done:
as §2

The target in assay [7] is T4, human A3AR. The experiment in a line: cAMP assay in AR-expressing HEK293 cells (ALPHAScreen), A3AR. The note with it: for cAMP, A3AR agonist activity: A3AR-expressing cells, MRS5698 reference full agonist. Format: cell-based. How it is done: as §2
The test system of assay [8] is T6, A1AR.
T6 construct: host or cells: A1AR-bla U2OS
The experiment in a line: A1AR-bla U2OS agonist screen (beta-arrestin/TEV, beta-lactamase reporter; Thermo Fisher). It counts as cell-based. How it is done:
A1AR-bla U2OS cells are thawed and resuspended in Assay Media (Freestyle media) to a concentration of 312,500 cells/ml. 32 μl of cell suspension (10,000 cells) was added to each well of a 384-well TC-Treated assay plate. Cells in Assay Media were incubated for 16–24 h in the plate at 37°C/5% CO2 in a humidified incubator. 4 μl aliquots of a 10X serial dilution of NECA (control agonist starting concentration, 500 nM) or compounds were added to appropriate wells of the plate. 4 μl of Assay Media was added to all wells to bring the final assay volume to 40 μl. The plate was incubated for 5 h at 37°C/5% CO2 in a humidified incubator. 8 μl of 1 μM substrate + Solution D Loading Solution was added to each well and the plate was incubated for 2 h at room temperature. The plate was read on a fluorescence plate reader.
This parental cell line stably expresses a beta‐arrestin/TEV protease fusion protein and the beta‐lactamase reporter gene under the control of a UAS response element. […] We also used a secondary assay PathHunter® β-Arrestin assay, which monitors the activation of A1AR in a homogenous, non-imaging assay format using a technology developed by DiscoverX called Enzyme Fragment Complementation (EFC) with β-galactosidase (β-Gal) as the functional reporter.

The next assay has as its target A2AAR. To be noted: read-out: Ki, A2AAR; A2AAR antagonist; quoted without method, no reference given; cited from earlier work.

The structures appear in SMILES notation. Entries after “also recorded” stand apart in the source; their conditions may differ. Counter-ions that a name gives are not always drawn. Like-named read-outs stand apart in the source and are kept apart here.

T3 sequence (P29274 whole entry): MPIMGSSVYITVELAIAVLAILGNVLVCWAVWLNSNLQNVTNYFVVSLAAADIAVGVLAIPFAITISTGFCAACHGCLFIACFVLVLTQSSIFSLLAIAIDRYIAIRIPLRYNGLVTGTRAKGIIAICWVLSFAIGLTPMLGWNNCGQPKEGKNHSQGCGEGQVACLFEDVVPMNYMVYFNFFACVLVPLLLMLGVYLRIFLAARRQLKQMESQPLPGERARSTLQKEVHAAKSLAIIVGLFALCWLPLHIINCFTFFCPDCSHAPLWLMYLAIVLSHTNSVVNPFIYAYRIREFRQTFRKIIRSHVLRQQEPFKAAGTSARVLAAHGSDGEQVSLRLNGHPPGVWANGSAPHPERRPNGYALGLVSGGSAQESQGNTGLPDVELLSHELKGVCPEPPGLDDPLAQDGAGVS

Take `Nc1ncnc2c1ncn2[C@@H]1O[C@H](CO)[C@@H](O)[C@H]1O` [Adenosine]: the “Adenosine affinity, A2BAR” value is “Low affinity” in the assay with A2BAR and “relatively lower affinity” in the assay on A2BAR (listed as ADO). The “Adenosine affinity, A3AR” value with A3AR was “relatively lower affinity”.

`Cc1ccc(S(=O)(=O)/C=C/C#N)cc1` [BAY 11-7082, (E)-3-(4-methylphenylsulfonyl)-2-propenenitrile]: the “normalized activity with respect to the positive control” value (shortened to “normalized activity”) with human A1AR [1] came to 95.74%.

Usually Ki stands for a dissociation constant, usually derived from enzyme kinetics or from competition with a known ligand. With `Cc1nc(-c2ccc(OCC(C)C)c(C#N)c2)sc1C(=O)O` [Febuxostat], the “normalized activity” value with human A1AR [1] is on record as 94.53%. For the same compound, the “Inhibition of specific binding, % inhibition at 100 µM, A1 ([3H]DPCPX)” value in the assay on human A1AR [2] came out at 29.8 ± 5.2%. Further, the “Ki, A2A ([3H]ZM241385)” value on human A2AAR [3] is on record as “in the µM range”. The results for the inhibition constant (Ki) at human A2AAR [3] and on human A3AR [4] were 22.9 ± 4.3 µM and 67.3 ± 45.7 µM, respectively. Besides, the “Inhibition of specific binding, % inhibition at 100 µM, A2B ([3H]DPCPX)” value with human A2BAR was less than 10%. The “Ki, A3 ([125I]I-AB-MECA)” value at human A3AR [4] is given as “in the µM range”. In the assay on A1AR [5], the “cAMP, A1AR agonist activity” value is “Not active”. The “cAMP, A2AAR activity (stimulation of cAMP)” value at human A2AAR [6] (A2AAR-expressing HEK293 cells) is “Not active”; at human A2AAR [6] (A2AAR-expressing HEK293 cells, listed as febuxostat), “not”.

Broadly, the Kd is the constant that tells how readily two partners part at equilibrium. A low value points to tighter binding. The term Emax denotes the size of the effect at its maximum, as opposed to the concentration needed. The term EC50 denotes the concentration that produces a half-maximal response. Regarding `Fc1ccc([C@@H]2CCNC[C@H]2COc2ccc3c(c2)OCO3)cc1` [Paroxetine, Paroxetine Hydrochloride], the “normalized activity” value with human A1AR [1] was found to be 68.0%. In addition, the “Inhibition of specific binding, % inhibition at 100 µM, A1 ([3H]DPCPX)” value in the assay on human A1AR [2] is reported as 9.1 ± 3.9%. For the same compound, at human A2AAR [3], the “Ki, A2A ([3H]ZM241385)” value is on record as “in the µM range” and the Ki amounted to 40.4 ± 9.8 µM. In addition, the Kd on human A3AR [4] (as worded in the Discussion) worked out at 14.5 ± 9.7 µM. Also, on human A3AR [4], the “Ki, A3 ([125I]I-AB-MECA)” value is on record as “in the µM range” and the Ki was 14.5 ± 9.7 µM. Besides, in the assay with A1AR [5], the “cAMP, A1AR agonist activity” value is “Not active”. In addition, at human A2AAR [6] (A2AAR-expressing HEK293 cells), the “cAMP, A2AAR activity (stimulation of cAMP)” value is listed as “weak activation; also recorded: Active”. Further, at human A2AAR [6] (A2AAR-expressing HEK293 cells, reference full agonist = 100% stimulation), the Emax was found to be 69%. The EC50 on human A2AAR [6] (HEK293 cells expressing human A2AAR, absence of antagonist, read-out: EC50, stimulation of cAMP, A2AAR) is 14 µM. The “agonist activity at the human A3AR at 100 µM” value on human A3AR [7] (100 µM) was “did not show any agonist activity”. On human A3AR [7], the “cAMP, A3AR agonist activity” value is given as “no activation; also recorded: Not active”. Moreover, the “cAMP, A3AR agonist activity” value on human A3AR [7] (listed as paroxetine) was “Lack of agonist effect”. The “activation of A1AR, A1AR-bla U2OS cells” value in the assay on A1AR [8] is “no activation”.

With `CCN(CC)CCOc1ccc2c(c1)C(=O)c1cc(OCCN(CC)CC)ccc1-2` [Tilorone Hydrochloride], in the assay on human A1AR [1], the “normalized activity” value is listed as 55.9%.

As to `CCn1c(=O)c2c(nc(/C=C/c3ccc(OC)c(OC)c3)n2C)n(CC)c1=O` [istradefylline, Istradefylline], at A2AAR, the inhibition constant Ki is 0.0022 µM.
